Test in all cases: DTP human tumour cell line panel, 48 h
Assay [1] relates to UO-31 renal.
The subject of assay [2] is U251 CNS.
For assay [3], the system named is OVCAR-8 ovarian.
Assay [4] deals with UACC-257 melanoma.
Assay [5] has as its system NCI-H226 lung.
Assay [6] deals with 786-0 renal.
For assay [7], the system named is MALME-3M melanoma.
Assay [8] relates to HL-60(TB) leukemia.
The subject of assay [9] is SK-OV-3 ovarian.
Assay [10] concerns RPMI-8226 leukemia.
Assay [11] concerns NCI-H23 lung.
The test system of assay [12] is SF-295 CNS.
The test system of assay [13] is SF-268 CNS.
The test system of assay [14] is SF-539 CNS.
The test system of assay [15] is K-562 leukemia.
Assay [16] has as its system IGROV1 ovarian.
Assay [17] has as its system HCC-2998 colon.

Molecules are shown by their SMILES.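 Cells were grown in 96-well plates and exposed to each compound for 48 hours at five concentrations; endpoints were interpolated linearly between bracketing concentrations, or set to the highest concentration if not reached. Definition used: TGI = concentration required for complete inhibition of growth.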

Broadly, the TGI is the concentration at which net growth stops. High values mean lower sensitivity of the cells, low ones greater sensitivity of the cells.

With `CC(=O)c1c(O)ccc2c1CC(CC=O)O2` (stereo not given), the TGI in [1], in assay [2], in [3], in assay [4], in assay [5] and in [6] was more than 100 µM throughout. Further, the TGI in assay [7], in [8], in [9], in assay [10], in [11] and in assay [12] was more than 100 µM each time. Also, the TGI in [13], in assay [14], in assay [15], in [16] and in assay [17] was more than 100 µM throughout.

Turning to `COc1ccc(C2CCC(Cl)(OC)CC2C=O)cc1` (stereo not given), the TGI in assay [1], in assay [2], in [3], in assay [4], in [5] and in assay [6] was more than 100 µM each time. In addition, the TGI in assay [7], in [8], in assay [9], in [10], in assay [11] and in assay [12] was more than 100 µM throughout. Moreover, the TGI in assay [13] was 97.3 µM; in [14] it was more than 100 µM; in [15], more than 100 µM; in assay [16], more than 100 µM; in assay [17], more than 100 µM.

On to `Cc1nccc2c1cnc1ccnn12`, for which the TGI in assay [1], in [2], in assay [3], in assay [4], in assay [5] and in assay [6] was more than 100 µM each time. Moreover, the TGI in [7], in assay [8], in assay [9], in [10], in assay [11] and in assay [13] was more than 100 µM each time. For the same compound, the TGI in assay [14], in assay [15], in assay [16] and in assay [17] was more than 100 µM throughout.

As for `NC(=O)c1csc(CCCCCCc2nc(C(N)=O)cs2)n1`, the TGI in assay [1] was more than 100 µM; in assay [2] it was more than 65.1 µM; in [3], more than 100 µM; in [4] it was more than 100 µM; in assay [5], more than 100 µM; in [6], more than 73.7 µM. Moreover, the TGI is more than 100 µM in assay [7]; more than 100 µM in assay [8]; more than 100 µM in [9]; more than 71.4 µM in assay [10]; more than 100 µM in assay [11]; more than 100 µM in assay [12]. In addition, the TGI was more than 100 µM in assay [13]; more than 100 µM in [14]; more than 62.8 µM in assay [15]; more than 100 µM in assay [16]; more than 100 µM in assay [17].

`COc1ccc(/C=C2\N=C(c3ccccc3)N(Nc3nnc(NN4C(=O)/C(=C/c5ccc(OC)cc5)N=C4c4ccccc4)c4ccccc34)C2=O)cc1`: the TGI in [2] is more than 100 µM; in assay [3], more than 100 µM; in [4], more than 100 µM; in [5], more than 100 µM; in assay [6], more than 100 µM; in assay [8] it was 61.4 µM. The TGI in assay [10], in [11], in assay [12], in [13], in [14] and in assay [15] was more than 100 µM each time. The same compound displayed a TGI in [16] of more than 100 µM.

With `CN(C)CCCSc1c2ccccc2nc2cc(NCC(=O)Nc3ccccc3-c3ccccc3NC(=O)CNc3ccc4c(SCCCN(C)C)c5ccccc5nc4c3)ccc12`, the TGI in [1], in [2], in assay [3], in assay [4], in [5] and in assay [6] was more than 100 µM throughout. Also, the TGI in assay [7] was more than 100 µM; in assay [8] it was 50.3 µM; in [9] it was more than 100 µM; in assay [10], more than 100 µM; in assay [11], more than 100 µM; in assay [12], more than 100 µM. The TGI in [13], in [14], in assay [15], in assay [16] and in [17] was more than 100 µM each time.

Consider `COC(=O)[C@H]1C=C[C@@H](C)n2c(=O)c3ccccc3c(=O)n21`, for which the TGI in [1], in assay [2], in assay [3], in assay [4], in assay [5] and in assay [6] was more than 100 µM each time. The TGI in assay [7], in [8], in assay [9], in [10], in assay [11] and in assay [12] was more than 100 µM each time. In addition, the TGI in [13], in [14], in assay [15], in assay [16] and in [17] was more than 100 µM in each case.

Regarding `COC1=CC(C2c3cc4c(cc3[C@@H](Nc3ccc([N+](=O)[O-])cc3)C3COC(=O)[C@H]23)OCO4)=CC(=O)C1=O` (stereo not given in full), the TGI in [1] was 20.7 µM; in assay [2] it was 4.75 µM; in assay [3], 40.4 µM; in assay [4], more than 100 µM; in assay [5] it was 6.65 µM; in assay [6], 4.86 µM. In addition, the TGI in assay [7] was 26.4 µM; in [9], 6.98 µM; in assay [10], more than 100 µM; in [11] it was 4.68 µM; in [12] it was 7.47 µM; in assay [13], 12.6 µM. Besides, the TGI in [14] is 6.05 µM; in assay [15], more than 96.6 µM; in assay [16] it was more than 65.2 µM; in assay [17], 14.5 µM.
